These results are taken from patent US20090149551A1 (priority 2007, published 2009).

Data set [1] has as its system pooled human liver microsomes.
The nature of data set [2]: Toxicity in mice receiving OHCT. The note with it: administration over four days, observed three months after administration.
The subject of data set [3] is human HepG2 cells. Format: cell-based. The settings on record: for chemoprotection against AFB1 induced cytotoxicity: 2 μM AFB1, HepG2. Here is the method:
The cell viability MTT assay on human HepG2 cells was carried out as previously reported. Briefly, HepG2 cells were seeded at 30,000 cells/well on a 96 well plate for 4 h before the treatment with AFB1 and OHCT or ketoconazole. After incubation for 72 h, the MTT assay was performed, followed by obtaining the absorbance of each well at 570 nm with a plate reader (μQuant, BioTek Instruments, Vt.). The statistical analyses (one-way ANOVA with Dunnett's test) were performed by GraphPad Prism.

Data set [4] deals with human liver or lung cells. The data set is described as follows: Toxicity to human liver or lung cells in culture.
A further data set relates to P. falciparum clone Dd2. Type of data set: cell-based, Plasmodium falciparum. Here is the method:
Cultures of Plasmodium falciparum.
In vitro antiplasmodial activity: All solutions of chloroquine diphosphate, artemisinin (Sigma Aldrich), and OHCT were prepared in media RPMI 1640, ethanol and 0.1% DMSO, respectively. […] Parasite growth was estimated by microscopic observation of Giemsa-stained blood smears. All results presented are the means of at least three independent experiments.
OHCT action on specific parasite life cycle stages: P. falciparum cultures were synchronized with 5% sorbitol and the Percoll-Sorbitol methods. Dilutions of OHCT, chloroquine, and artemisinin were prepared. To determine the in vitro efficacies of the three antimalarial drugs in culture, serial dilutions were prepared: for artemisinin, chloroquine and OHCT at 2, 4, 8, 16, 32 and 40 μM, respectively. After synchronization, the parasites were plated at the ring stage in 96-well plates. Each plate corresponded to one of the successive 6-h periods of the P. falciparum life cycle.

In data set [5] the target is T1, recombinant human P450 3A4 (Homo sapiens, UniProt P08684).
T1 construct: purchased Invitrogen (Carlsbad, Calif.)
Kind of data set: Vivid P450 3A4 activity assay with NADPH regenerating system. Type of data set: biochemical. The note with it: for decrease of P450 3A4 activity: 2 μM DBOMF. Here is the method:
(§1) The Vivid® P450 3A4 activity assay was carried out according to the manufacturer's protocol. Briefly, water (30 μL) and solutions of HCT (10 μL) were added to wells of a 96-well black plate. Master pre-mix solutions (50 μL) containing recombinant human P450 3A4 and rabbit NADPH P450 reductase were then added, and the resulting solutions were equilibrated at room temperature for 20 min. Finally, 10 μL of mixed NADP^+ and DBOMF substrate solutions were added, and the fluorescence intensity over time was recorded with a fluorometer at the excitation and emission wavelengths of 485 and 535 nm, respectively. The final concentrations were 100 mM phosphate buffer (pH 8.0), 3.3 mM glucose-6-phosphate, 0.3 unit/mL glucose-6-phosphate dehydrogenase, 1.0 mM NADP^+, 2 μM DBOMF and 5 nM P450 3A4 with 0.1% DMSO. Control experiments included no DBOMF as the background and 1 μM ketoconazole as the positive control. The rates of the P450 activity were obtained from the slope of the change of the fluorescent intensity over the initial 8 min.
(§2) Enzyme and Cellular Studies with OHCT. The inhibitory effect of OHCT on P450 3A4 and the metabolic conversion of AFB1 with liver microsomes were studied similarly as described for HCT. […] The P450 activity was carried out similarly as described above with concentrations of DBOMF at 0.50, 0.67, 1.0, and 2.0 μM, respectively. The rates of the P450 activity were obtained as the slope of the change of the fluorescent intensity over the initial 4 min. The inhibitory constants of OHCT were obtained from the global best fit of the mixed inhibition model by GraphPad Prism (version 4.00, GraphPad Software, San Diego, Calif.).

A short description of data set [6]: Stability in solution by HPLC analysis. Format: physicochemical. The protocol: 4b,5,6,7,8,8a-cis-Hexahydro-2-hydroxy-4b,8,8a-trimethylphenanthren-9,10-dione (OHCT). Spontaneous oxidation of HCT to OHCT was carried out in 100 mM phosphate buffer (pH 7.4) and 1.0 mM HCT in 10% acetonitrile. […]
A further data set has as its target T2, CYP3A4 (P450 3A4) (Homo sapiens, UniProt P08684).
T2 construct: purchased Invitrogen (Carlsbad, Calif.)
Kind of data set: Vivid P450 3A4 activity assay with NADPH regenerating system. Format: biochemical. The settings on record: human, recombinant human P450 3A4 with rabbit NADPH P450 reductase, pH 8, probe DBOMF 2 μM; 1 μM, 2 μM DBOMF; read-out: inhibition of the enzyme activity (P450 3A4). Here is the method: as §1, §2

The subject of data set [7] is human HepG2 cells. The note with it: HepG2, co-treatment with AFB1; Zhou et al. 2006; cited from earlier work.
The test system of the next data set is P450 1A/1B. The settings on record: HepG2, co-treatment with TCDD; cited from earlier work.
Setting [8] is: 40 μM, 50 μM AFB1, NADPH regenerating system, 37° C. 90 min.
The mark [9] stands for this setting: mixed inhibition model, global best fit, substrate DBOMF.

Like-named read-outs stand apart in the source and are kept apart here. Some results are limits rather than exact numbers.

T1 sequence (P08684 whole entry): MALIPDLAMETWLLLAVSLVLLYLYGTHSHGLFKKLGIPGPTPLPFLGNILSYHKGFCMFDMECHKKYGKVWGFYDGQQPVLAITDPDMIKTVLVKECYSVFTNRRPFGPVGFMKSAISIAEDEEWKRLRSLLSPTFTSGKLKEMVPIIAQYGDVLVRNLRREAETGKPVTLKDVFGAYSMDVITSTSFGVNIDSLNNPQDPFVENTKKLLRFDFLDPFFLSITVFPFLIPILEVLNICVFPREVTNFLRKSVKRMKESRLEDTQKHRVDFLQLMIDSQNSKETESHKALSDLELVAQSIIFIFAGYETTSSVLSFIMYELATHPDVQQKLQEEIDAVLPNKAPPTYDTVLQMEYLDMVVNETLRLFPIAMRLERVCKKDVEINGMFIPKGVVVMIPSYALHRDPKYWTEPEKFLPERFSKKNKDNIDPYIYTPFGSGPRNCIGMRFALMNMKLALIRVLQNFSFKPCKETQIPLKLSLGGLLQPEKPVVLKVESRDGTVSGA
T2 sequence (P08684 whole entry): as above

With `O=c1cc(-c2ccccc2)oc2c1ccc1ccccc12` [α-NF, α-naphthoflavone, reference compound], in [1] (50 μM), the “decrease of aflatoxin Q1 versus no α-NF” value amounted to 6 fold and the “increase of the amount of GSH-AFB1 adducts versus no α-NF” value is 2.3 folds.
In the case of `CC1CCCC2(C)c3ccc(O)cc3C(=O)C(=O)C12C` (stereo not drawn) [OHCT, 4b,5,6,7,8,8a-cis-Hexahydro-2-hydroxy-4b,8,8a-trimethylphenanthren-9,10-dione], in data set [2], the “signs of toxicity in mice” value is reported as “no signs of toxicity”. The “cytotoxicity of the compound alone” value with human HepG2 cells [3] (60 μM alone, HepG2) is on record as “no cytotoxicity”. The “cell viability on co-treatment with AFB1” value with human HepG2 cells [3] (60 μM, 2 μM AFB1, HepG2, 72 h, MTT) is reported as “more than 90%”. For the same compound, the “chemoprotection against AFB1 induced cytotoxicity” value with human HepG2 cells [3] (40 and 60 μM) is given as “effective chemoprotection”. Further, the “toxicity to human liver or lung cells in culture” value in data set [4] is “no toxicity”. Besides, the “activity against the gametocyte forms of the parasite” value with P. falciparum clone Dd2 (2 μM) is recorded as “active”. The compound also had a decrease of parasitemia in the data set on P. falciparum clone Dd2 (16 μM, 8 h, clone Dd2) of 50%. The “killing of chloroquine resistant clone Dd2” value in the data set on P. falciparum clone Dd2 (24 hr following treatment, concentration dependent) was “killed”. Moreover, in the data set with P. falciparum clone Dd2 (clone Dd2, 24 hr), the “inhibition of early ring, trophozoite and schizont stages” value is on record as “equally inhibited”. In addition, in [1] (setting [8]), the “inhibition of the metabolic conversion of AFB1 in liver microsomes” value is “inhibition of both GSH-AFB1 adducts and aflatoxin Q1”. Besides, the “stability under aqueous conditions and in the metabolic study of liver microsomes” value in [1] (liver microsomes, HPLC) was “no degradation”. Besides, the “decrease of P450 3A4 activity” value in [5] (20 μM) is 50%. Besides, in data set [5] (setting [9]), the “Ki (disassociation constant of enzyme inhibitor complex)” value was found to be 17.6 ± 5.6 µM and the “Ki′ (disassociation constant of enzyme-substrate inhibitor complex)” value worked out at 7.6 ± 1.5 µM. Further, the “stability under aqueous conditions” value in data set [6] (72 h at 37° C., HPLC) is “no degradation”.
As a reminder, the inhibition is the share of the control response that was lost under treatment. As to `CC(=O)N1CCN(c2ccc(OCC3COC(Cn4ccnc4)(c4ccc(Cl)cc4Cl)O3)cc2)CC1` (stereo not shown) [ketoconazole, reference compound], the “cell mortality, compound alone” value in the data set with human HepG2 cells [3] (20 μM alone, HepG2) stood at 20%. For the same compound, the “chemoprotection against AFB1 induced cytotoxicity” value in the data set with human HepG2 cells [3] (10 and 20 μM) is on record as “observed”. In addition, the “inhibition of the α-NF stimulated production of exo-AFB1-epoxide” value in [1] was “consistently inhibited”. Moreover, in data set [1] (1 μM, 50 μM AFB1, NADPH regenerating system, 37° C. 90 min), the “inhibition of the metabolism of AFB1 in liver microsomes” value is “same extent as 40 μM HCT”. For the same compound, the inhibition at 8 min, 1 μM at CYP3A4 (P450 3A4) was more than 90%.
Broadly, the IC50 is the point on the concentration scale where inhibition reaches its midpoint. On to 2-hydroxy-cis-terpenone [HCT], for which, in the data set on human HepG2 cells [7], the “effect of co-treatment on AFB1 induced cytotoxicity including DNA damage and cell death” value is reported as “reduced AFB1 induced cytotoxicity”. Further, the “effect on TCDD induced P450-1 activity” value in the data set with P450 1A/1B was “inhibited”. The “inhibition of the metabolic conversion of AFB1 in liver microsomes” value in data set [1] (setting [8]) is “effective inhibition”. For the same compound, the “inhibition of the α-NF stimulated production of exo-AFB1-epoxide” value in [1] (40 μM, with 50 μM α-NF) is listed as “consistently inhibited”. Besides, the “inhibition of the carcinogenic conversion of AFB1 with liver microsomes” value in [1] (10, 20, 40 μM) is “inhibited by HCT in a concentration dependent manner”. The figures for the “decrease of P450 3A4 activity” value in data set [5] (10 μM), in data set [5] (20 μM) and in [5] (40 μM) were approximately 30%, approximately 50% and approximately 70%, respectively. The IC50 in [5] (purified P450 3A4, read-out: IC50, inhibition of purified P450 3A4 enzyme activity) came out at 20 µM. The “stability in the phosphate buffer and in the AFB1 metabolic study” value in data set [6] (100 mM phosphate buffer pH 7.4, 37° C.) is “slow degradation”. The “stability of stock solutions” value in data set [6] (acetonitrile, −15° C., several weeks) is given as “no significant degradation”.
Turning to `CC(C)CCC[C@@H](C)[C@H]1CC[C@H]2[C@@H]3CC=C4C[C@@H](O)CC[C@]4(C)[C@H]3CC[C@]12C` [cholesterol, reference compound], in data set [1] (up to 100 μM), the “inhibitory effect on the metabolic conversion of AFB1 in liver microsomes” value is listed as “no inhibitory effect”.
